# Measured values: a melting point compilation (Tetko et al.; mined from patent text by program, amines drawn as free bases though some values may be those of a salt)
row,SMILES,melting point
1,O=S(Cc1nnc(-c2ccc3c(c2)CCO3)o1)c1cccc(F)c1 (configuration not stated),131 to 132 °C
2,Cc1nnc(C(C)C)n1C1CC2CCC(C1)N2CCC(NC(=O)C1CCC(F)(F)CC1)c1ccc(NC(=O)COCC(=O)NCCCCCCCN)cc1 (configuration not stated),100 to 102 °C
3,O=C(c1ccc(Cl)cc1)c1c(Cl)cc(CBr)cc1Cl,69 to 73 °C
4,N=C(N)c1ccc(C(=O)N[C@@H](CO)Cc2ccc(OCC(=O)O)cc2)cc1,238 to 240 °C
5,COc1ccc(C2=NN(c3ccc(C(=O)O)cc3)C(=O)[C@H]3CC=CC[C@@H]23)cc1OC (relative stereo),198 to 199 °C
6,CN(C)C(=O)Cc1ccccc1Nc1ccnc2cc(C(F)(F)F)ccc12,172 to 173 °C
7,CC1(CC2CCCC2)Cc2cc(CC(=O)O)c(Cl)c(Cl)c2C1=O (configuration not stated),146 to 148 °C
8,CC(c1ccccc1)c1ccc(-c2cnn3c(O)ncnc23)cc1 (configuration not stated),291 to 293 °C
9,CCN(CC)c1ccc(/C=C/C(=O)CC(=O)/C=C/c2ccc(OC)c(O)c2)c(O)c1,101 to 108 °C
10,COC(=O)CCCCCOc1ccc(NC(=O)CCCCCO)cc1,73 to 75.5 °C
11,CCC(Oc1ccc(C)c(C)c1)C(=O)OC1CC(O)C=C2C=CC(C)C(CCC3CC(O)CC(=O)O3)C21 (mixture of isomers),137 to 139 °C
12,COC(=O)c1ccc(C2C(=O)Oc3c2cc(C(C)(C)C)cc3C(C)(C)C)cc1 (configuration not stated),135 to 136 °C
13,CCOC(=O)c1cn(C2CC2)c2nc3c(F)c(F)c(F)cc3cc2c1=O,260 °C
14,OCCOC1=Nc2ccc(Cl)cc2C(c2ccccc2)=NC1,142 to 144 °C
15,Cc1cc(Cl)ccc1N=CN(C)SN(C1CCCCC1)C1CCCCC1,110 to 111 °C
16,COc1cc(C=CC(=O)OC2CC3C(O)C(OC(=O)C=Cc4cc(OC)c(OC)c(OC)c4)C(C2)N3C)cc(OC)c1OC (configuration not stated),59 to 61 °C
17,CP(=O)(O)C(O)C(CN)c1ccc(Cl)cc1 (configuration not stated),240 to 241 °C
18,CC(C)Oc1ccc(OCc2ccccc2)cc1-c1nc2ccc(C#N)nc2[nH]1,214 to 215 °C
19,CC(C)c1ccc(O)c(C(C)C)c1NC(=O)CN1CCN(CCSc2nc3ccccc3o2)CC1,96 to 98 °C
20,ON=C1CC(c2ccccc2)Cc2ccccc21 (configuration not stated),195 °C
21,COC(=O)c1cc(C#Cc2cnc3nc(NC(=O)C(C)(C)C)nc(O)c3c2)cn1[Si](C(C)C)(C(C)C)C(C)C,163 to 165 °C
22,CCCc1c(O)c(C(C)=O)cc2c(=O)cc(C(=O)OC)n(CC)c12,121 to 123 °C
23,CCCS(=O)c1sc(C(N)=O)c2c1-c1c(cnn1CC)CC2 (configuration not stated),151 to 152 °C
24,Cc1noc(C)c1Cn1cc(N2C(=O)c3ccccc3C2=O)cn1,170 to 171 °C
25,C=C1[C@H](CO)[C@H](O)[C@H](O)[C@H]1OCc1ccccc1,122 to 124 °C

row,SMILES,melting point
1,CN1CCN(CCc2ccc(Nc3ncc4c(n3)-c3ccccc3C(c3cccc(Br)c3)C4)cc2)CC1 (configuration not stated),100 to 102 °C
2,COc1ccc(-c2nc3cnncc3[nH]2)c(OC)c1,268 °C
3,Cc1cc(C)c(Nc2nc(C)ncc2S(=O)(=O)c2ccc(N3CCCC3)cc2)c(C)c1,196 to 198 °C
4,CSC(=CC(=O)c1ccccc1C)SC,96.2 °C
5,CC(F)(F)c1cccc(C[C@@H](C(=O)O)[C@@H](O)c2ccc(F)cc2)c1 (racemic),132 to 133 °C
6,COC(=O)CCC(O)C(=O)OC(C)(C)C (configuration not stated),36 to 37 °C
7,CC1(C)Cc2c(c(N3CCOCC3)nc3sc4c(N(CCN5CCOCC5)Cc5cccnc5)ncnc4c23)CO1,150 °C
8,COc1ccc2oc(C(=O)C34CC5CC(CC(C5)C3)C4)cc2c1,113 to 115 °C
9,O=C1N(Cc2ccccn2)c2cccc(Br)c2C1(O)c1cc2c(cc1O)OCC2 (configuration not stated),> 225 °C
10,O=C1CN2C(=O)C(c3ccccc3)c3cccc(c32)N1 (configuration not stated),235 °C
11,Cc1c2cnccc2c(C)c2c1c1cc(O)ccc1n2C,337 to 338 °C
12,O=[N+]([O-])c1cc(C(F)(F)F)cc(C(F)(F)F)c1S(=O)(=O)Oc1ccccc1,83 to 84 °C
13,COc1ccc(C(=O)Nc2c(Cl)cncc2Cl)c2c1OCC2CC(=O)NCc1ccc(F)cc1 (configuration not stated),287 °C
14,O=C1Cc2ccc(S(=O)(=O)Cl)cc21,80 °C
15,CCOc1c(C#N)cnc2c(NC(=O)c3c(Cl)cccc3Cl)cccc12,200 to 201 °C
16,CCCCCC[C@H]1C[C@@H](C)OC1=O (relative stereo),28.5 °C
17,CCOC(=O)c1c(-c2ccc(F)cc2)cc(-c2ccccc2)n1C(C)C,97 to 100 °C
18,CCCOc1ccccc1C(=O)Nc1ccncc1C(N)=O,135 to 136 °C
19,CCOC(=O)c1c(CN(CC)CC)nc2cc(OC)c(OC)cc2c1-c1ccc(OC)cc1,118 to 119 °C
20,CC(C)Cc1ccc(CCCN(C)[C@H]2CC[C@H](c3ccc4[nH]c(=O)oc4c3)CC2)cc1,162 to 165 °C
21,NS(=O)(=O)c1cccc(C(O)C(F)(F)F)c1 (configuration not stated),130 to 132 °C
22,CC(=O)NC[C@@H]1C[C@H]1c1cccc2c1C[C@@H](CCCCc1ccccc1)O2,65 to 66 °C
23,COCc1nc2nccnc2c(=O)[nH]1,187 to 189 °C
24,CC(C)Oc1ccc(OCc2ccccc2)cc1-c1nc2cc(C=O)cnc2[nH]1,170 to 171 °C
25,CCCc1cc(COc2cc(C)nc(C)c2OC)ccc1-c1ccccc1S(=O)(=O)Nc1noc(C)c1C,56 to 59 °C

row,SMILES,melting point
1,O=C(O)c1ccc(NC(=O)C(F)(F)F)cc1,277 to 278 °C
2,CC(=O)Nc1[nH]cc(-c2ccc(NS(=O)(=O)c3cccc(Cl)c3Cl)cc2)c1C(N)=O,265 °C
3,N#CC=C(c1ccccc1C(F)(F)F)c1ccccc1C(F)(F)F,65 to 68 °C
4,N#CCCn1cccc1C1=CC(=O)c2ccccc2C1=O,127 to 128 °C
5,CC(O)(COc1ccc(-c2ccc(Cl)cc2)cc1)CN1CCCC1 (configuration not stated),121 to 122 °C
6,OC(CCc1ccccc1)c1cnc2sc3ccccc3n12 (configuration not stated),174 to 175 °C
7,CN(C)c1ncc([N+](=O)[O-])cc1Cl,111 to 113 °C
8,NC(=O)CCCN(Cc1ccccc1)Cc1ccccc1,76 to 77 °C
9,CCOC(=O)C(C)(C)c1ccc(C(O)CCCN2CCC(=C3c4ccccc4CCc4ccccc43)CC2)cc1 (configuration not stated),142 to 144 °C
10,O=C(CCC(=O)N1CCC(c2ccc(F)cc2)CC1)c1ccc2c(c1)CCNCC2,127 to 128 °C
11,O=C1Nc2ccc(-c3cccc(Cl)c3)cc2C2(CCCC2)O1,140 to 145 °C
12,CC(C)N(CCC(CCN(C(C)C)C(C)C)(C(N)=O)c1ccc(Cl)cc1)C(C)C,113 to 115 °C
13,CC(C)N1C(=O)NC2(CCN(C(=O)OC(C)(C)C)CC2)C1=O,206 to 208 °C
14,CC(=O)NCCNc1nc(-c2ccc(=O)n(C(C)C)n2)c(-c2ccccc2)nc1N,147 to 149 °C
15,CCOC(=O)c1cccc(O)c1O,66 to 67.2 °C
16,Cc1c(C)c2c(c(C)c1N)CC(C)(CN1CCC(Cc3ccccc3)CC1)O2 (configuration not stated),71 to 73 °C
17,COC(=O)Cc1ccc(OCCNC(=O)C2Cc3ccccc3N2S(=O)(=O)c2ccc(-c3cccc(C(F)(F)F)c3)cc2)cc1C (configuration not stated),53 to 57 °C
18,CC(C)CCc1nc2ccccn2c(=O)c1-c1ccc(Cl)cc1,146 to 149 °C
19,CCCCc1nc(C(=O)O)c(C(=O)O)n1Cc1ccc(I)cc1,98 to 99 °C
20,CCOc1cc(N)c(Cl)cc1C(=O)NC1CCN(CC2CCN(C(=O)N(C)C)CC2)CC1,203 to 205 °C
21,COc1ccc(C(=C/C=C/C(=O)NC(C)(C)CCCc2cccnc2)c2ccc(OC)cc2)cc1,144 to 145 °C
22,CCCCC1(N2CCCC2)CC=C(c2[nH]c3ccccc3c2CCc2ccncc2)CC1 (configuration not stated),187 to 195 °C
23,CN1CCC(c2cnc3ccc(C(=O)Nc4ccc(F)cc4)[nH]c2-3)CC1,114 to 116 °C
24,CCc1cc(Br)cc(C(=O)Nc2ccc(F)cn2)n1,124 °C
25,O=C(NC[C@H]1CN(c2ccc(N3CCCC3=O)cc2)C(=O)O1)c1ccc(Cl)s1,229 °C

row,SMILES,melting point
1,Cc1c(C(=O)Nc2ccc(OCC(C)(C)C)c(C#N)c2)cnn1-c1ccc(F)cc1,126 to 127 °C
2,CCc1n[nH]c(CC)c1CCCCCCOc1ccc(Br)cc1,31 to 33 °C
3,CCOC(=O)c1cn(N(C)C)c2ccccc2c1=O,119 to 120 °C
4,CC(=O)SCC(Cc1ccc(N(C)C)cc1)C(=O)Nc1cccc(C(=O)O)c1 (configuration not stated),71 to 73 °C
5,ClCn1cc(Cl)c(-c2cc(Cl)cc(Cl)c2)n1,88 °C
6,COC(=O)c1ccc(NC(=O)c2ccccc2-c2ccccc2)c(OC)c1,115 to 117 °C
7,CN1CC2CC(=NO)c3cccc4c3N2C(C1)c1ccccc1C4 (configuration not stated),209 to 210 °C
8,CCCCCCCCCCCCCCCO/N=C(\CCCCCCCCCCCCCCC)CC(=O)O,65 to 67 °C
9,CCOC(=O)C1=Cc2cc(Cl)ccc2OC1C(F)(F)F (configuration not stated),62 to 64 °C
10,CC(C)(C)CCN1C(=O)C(NC(=O)Nc2ccccc2)C(=O)N(c2ccccc2F)c2ccccc21 (configuration not stated),271 to 272 °C
11,CCCCN1C(=O)C(C)(C)N=C(c2ccccc2F)c2cc([N+](=O)[O-])cc(Cl)c21,151 °C
12,CCCC(C)(CC)C(=O)O[C@H]1C[C@H](O)C=C2C=C[C@H](C)[C@H](CC[C@@H]3C[C@@H](O)CC(=O)O3)[C@H]21 (some centres not stated),126 to 128 °C
13,COc1ccc(-c2ccc3c(c2)c(C)c(-c2ccccc2)n3Cc2ccccc2)cc1,117 to 122 °C
14,CCOC(=O)c1sc(Cl)nc1-c1cccc(C)c1,41 to 42 °C
15,Cc1cc(CCCCCCCOc2ccc(C3=NCCN3)cc2)on1,118 to 119 °C
16,O=Cc1ccc(-c2nnc(-c3ccccc3[N+](=O)[O-])o2)cc1,189 to 190 °C
17,CCNC(=O)c1ccc2ncc(C3CCN(C)CC3)c-2[nH]1,117 to 120 °C
18,c1cnc2c(c1)NCC2,63 °C
19,O=C(O)c1ccccc1OCCOc1cccc2ccccc12,205 to 207 °C
20,COC(=O)c1cccc(-c2nc(-c3ccc(C(F)(F)F)cc3)co2)c1,151 to 152 °C
21,CCCCN(Cc1ccc(-c2ccccc2-c2nnn[nH]2)cc1)c1nc(C)cc(C)n1,148 to 150 °C
22,O=C1NCCOc2cc([N+](=O)[O-])ccc21,208 to 209 °C
